Legend:
[1] = target: T1, ATP-binding cassette sub-family C member 2 (Homo sapiens, UniProt Q92887); assay: TP_TRANSPORTER: Northern blot in vivo, apical membrane of enterocyte; type: functional, organism-based
[2] = target: T1, ATP-binding cassette sub-family C member 2; assay: TP_TRANSPORTER: Immunohistochemistry in vivo, apical membrane of enterocytes; type: functional, organism-based, Enterocyte apical membrane

T1 sequence (Q92887 whole entry): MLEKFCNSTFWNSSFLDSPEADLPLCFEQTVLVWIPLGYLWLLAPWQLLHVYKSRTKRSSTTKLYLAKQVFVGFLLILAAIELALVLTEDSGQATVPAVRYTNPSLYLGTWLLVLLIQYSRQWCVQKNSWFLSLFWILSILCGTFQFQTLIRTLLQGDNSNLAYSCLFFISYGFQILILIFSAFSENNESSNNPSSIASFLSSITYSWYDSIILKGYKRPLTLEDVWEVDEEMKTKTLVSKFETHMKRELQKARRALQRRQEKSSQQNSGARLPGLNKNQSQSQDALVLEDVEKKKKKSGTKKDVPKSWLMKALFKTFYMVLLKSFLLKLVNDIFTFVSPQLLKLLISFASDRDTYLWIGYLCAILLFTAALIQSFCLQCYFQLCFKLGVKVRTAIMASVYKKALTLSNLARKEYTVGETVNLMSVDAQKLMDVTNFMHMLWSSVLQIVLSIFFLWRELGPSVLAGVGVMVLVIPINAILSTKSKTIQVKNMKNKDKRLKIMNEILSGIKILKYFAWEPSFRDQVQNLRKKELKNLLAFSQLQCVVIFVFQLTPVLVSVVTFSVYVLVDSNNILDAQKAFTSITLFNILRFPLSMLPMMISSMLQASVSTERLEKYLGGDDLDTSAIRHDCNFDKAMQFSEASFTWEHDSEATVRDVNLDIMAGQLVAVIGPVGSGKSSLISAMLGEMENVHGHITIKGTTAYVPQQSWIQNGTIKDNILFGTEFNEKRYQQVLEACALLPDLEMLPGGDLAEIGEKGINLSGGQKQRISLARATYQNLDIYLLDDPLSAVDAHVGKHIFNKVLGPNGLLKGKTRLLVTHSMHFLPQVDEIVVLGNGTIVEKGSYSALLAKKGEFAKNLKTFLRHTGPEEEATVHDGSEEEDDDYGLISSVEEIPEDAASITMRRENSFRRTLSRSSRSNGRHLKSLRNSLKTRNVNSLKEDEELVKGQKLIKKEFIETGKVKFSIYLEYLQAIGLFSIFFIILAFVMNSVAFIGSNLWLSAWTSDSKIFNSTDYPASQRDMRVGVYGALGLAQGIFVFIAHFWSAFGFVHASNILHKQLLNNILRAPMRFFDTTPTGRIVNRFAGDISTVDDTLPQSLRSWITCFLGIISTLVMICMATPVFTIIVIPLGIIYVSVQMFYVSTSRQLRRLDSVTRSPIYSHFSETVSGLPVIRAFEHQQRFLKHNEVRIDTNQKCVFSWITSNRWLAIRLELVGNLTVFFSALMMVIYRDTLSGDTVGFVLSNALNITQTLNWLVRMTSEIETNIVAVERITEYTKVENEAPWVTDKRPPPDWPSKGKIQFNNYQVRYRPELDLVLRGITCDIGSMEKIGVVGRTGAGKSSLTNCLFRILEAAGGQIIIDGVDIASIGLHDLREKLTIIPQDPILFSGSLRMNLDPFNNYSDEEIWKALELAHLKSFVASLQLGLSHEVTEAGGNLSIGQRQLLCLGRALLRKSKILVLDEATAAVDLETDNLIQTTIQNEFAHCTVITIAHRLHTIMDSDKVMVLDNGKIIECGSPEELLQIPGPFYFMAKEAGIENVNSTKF

In the case of CO[C@H]1/C=C/O[C@@]2(C)Oc3c(C)c(O)c4c(O)c(c(/C=N/N5CCN(C)CC5)c(O)c4c3C2=O)NC(=O)/C(C)=C\C=C\[C@H](C)[C@H](O)[C@@H](C)[C@@H](O)[C@@H](C)[C@H](OC(C)=O)[C@@H]1C [RIFAMPIN], the Activity [1] is reported as “inducer [+]” and the Activity [2] is reported as “inducer [+]”.
